Where two headings read alike, the source gives them in different places.
What was measured:
[1] = cited from earlier work
[2] = in vivo; details: rat
Excerpt: In vivo unbound brain distribution data (Kp,uu,Brain) for 16 drugs and total brain distribution data (Kp,Brain) for 16 drugs was acquired from literature. […] For each tested compound, fifteen rats were randomly divided into five groups of three rats each. […] The time of execution of the rats by CO2 inhalation after administration was optimized according to the in vivo elimination rate to achieve five concentrations of different time points. After the rats were euthanized, cardiac puncture was performed immediately to remove as much whole blood as possible (~7 ml) from the systemic circulation (Quantitatively aliquot 0.2 ml of whole blood for the determination of drug concentration in plasma). Afterwards, the brain tissue was collected immediately and rinsed repeatedly with ice-cold saline 3 times. Then, the surface saline was blotted dry with clean filter paper to remove as much residual drug in the blood vessels as possible. Plasma samples were prepared by centrifugation of the blood samples at 2,500 g for 10 minutes at 4 °C. All brain samples were homogenized by adding 4-fold volume water. All samples were stored at -40 °C before LC-MS/MS analysis. […] The brain tissue partition coefficient (Kp, brain) and brain-to-plasma unbound drug partition ratio (Kp,uu, brain) are calculated according to the following formulas, respectively: Kp,brain=AUC(0−∞,brain)/AUC(0−∞,plasma)Kp,uu,brain=Kp,brain×(fu,tissue/fu,plasma)
Free brain-to-plasma distribution coefficients (Kp,uu,brain) of 41 drugs. Brain distribution coefficients (Kp,uu,brain) were calculated for 41 drugs. […] Plasma and brain concentration-time profiles were generated, and AUC(0-t) values for both matrices were calculated using WinNolin 8.1. Kp,brain was derived as the ratio of brain-to-plasma AUC(0-t).
Kp,uu,brain values were computed by normalizing Kp,brain to unbound fractions (fu,plasma and fu,brain).

[3] = cited from earlier work; remark: listed apart in the source
[4] = Bidirectional transport across LLC-PK1 MOCK monolayer (Transwell); details: pig; for Papp A→B at 2 h, 2 µM: LLC-PK1, pH 7.4, Papp A-B, mean ± s, n = 3, BLQ = below 2 nM; for recovery at 2 h, 2 µM: LLC-PK1 MOCK cell monolayer (Transwell), pH 7.4, Recovery after correction of intracellular accumulation data, cell lysate included, mean±SD, n=3;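 for all read-outs here: compound quantified by LC-MS/MS in donor and receiver wells, efflux ratio as B-A over A-B Papp, recovery relative to initial donor amount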
Procedure: (§3) Cells were passaged at 80−90% confluence (every 2−3 days) using trypsin-EDTA solution. […] The culture medium was replaced every other day, including 200 µL culture medium in the apical and 850 µL cell culture medium in the basolateral side. LLC-PK1 MOCK cells were used at passages of 3−30. LLC-PK1-MDR1 cells were cultured and passaged in the same manner as LLC-PK1 cells except at the density of 1 × 10^4 cells per well. LLC-PK1-MDR1 cells were used at passages of 3−25. For LLC-PK1 MOCK cells and LLC-PK1-MDR1 cells, the experiments were performed on the 4th and 7th day after seeding.
(§4) Samples were collected from the donor well at the start of the incubation (50 µL) as C0, and from the donor and receiver wells at the end of the incubation (50 µL). All samples were stored at - 40 °C for LC-MS/MS analysis.
(§5) Bidirectional transport experiments. […] The transwell experiments were conducted following above-mentioned procedure. […] When the recovery rate of the tested drug is below 80%, the possibility of intracellular accumulation should be considered. The polycarbonate (PC) membrane where cells are grown should be carefully peeled off from the cell culture medium and placed in 100 µL of HBSS buffer solution. […] The process was carried out on ice to prevent heat-induced degradation, applying a power in the range of 300 W for a total duration of 20 minutes. Thereafter, a quantitative analysis of the intracellular drug was conducted, and the drug recovery rate was recalculated based on this analysis.
(§6) The apparent permeability coefficient (Papp, cm/s) was calculated for each transport direction, A-B and B-A, using the following equation: Papp=dQ/dt×1/A×C0 where dQ/dt is the permeation rate (µmol/s), A is the surface area of the insert (0.33 cm^2, Corning), and C0 is the initial donor concentration (µM).
(§7) The efflux ratio (ER) is calculated as the ratio of Papp (B-A)/Papp (A-B). Recovery=TRcumrf+Cdf×VD/Cdi×VD×100% Where TRcumrf is the cumulative transported mass in the receiver chamber at the end of the incubation (nmol), Cdf is the concentration of the drug in the donor chamber at the end of the incubation (μM), VD is the volume of the donor chamber (mL), and Cdi is the initial concentration of the drug in the donor chamber (μM).
(§8) The method of the bidirectional transport experiment was the same as before.

[5] = parameters: method as in Internal data; details: footnote a; ref Internal data; cited from earlier work
[6] = test system: P-gp (human MDR1); test: in vitro; details: pig, LLC-PK1, pH 7.4;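 note: 2 h incubation at 37 °C, receiver HBSS with 10 mM Hepes plus 1% BSA, LC-MS/MS of donor and receiver, recovery as receiver plus donor amount over initial donor amount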
[7] = test system: P-gp (human MDR1); test: Bidirectional transport across LLC-PK1-MDR1 monolayer stably expressing human MDR1 (P-gp) (Transwell); details: pig;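 note: 2 h incubation at 37 °C, receiver HBSS with 10 mM Hepes plus 1% BSA, LC-MS/MS of donor and receiver, recovery as receiver plus donor amount over initial donor amount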
[8] = in vitro; details: pig, LLC-PK1 MOCK cell monolayer (Transwell), pH 7.4
Procedure: as §3, §4, §5, §6, §7, §8

[9] = in vitro; details: rat, brain homogenate
Procedure: (§1) Stocks (10 mM) of test compounds were diluted to 5 μM with plasma or tissue homogenate and dialyzed at 37 °C for 6 hours in a shaking incubator. After incubation aliquots of both plasma or tissue homogenate and buffer from the device were taken and added to equal volumes of blank buffer and plasma or tissue homogenate respectively. Samples were then diluted in acetonitrile containing an internal standard prior to centrifugation and analysis of the supernatants by LC-MS/MS. The fu, plasma was calculated using Equation 1:(1) fu,plasma=Concbuffer chamber/Concsample chamber
Rat fraction unbound in brain (fu, brain) was determined as the ratio of concentration in buffer to that in brain.
(§2) Unbound fractions of test drugs in plasma (fu,plasma) and brain tissue (fu,brain). For compounds with existing rat plasma or brain protein-binding data from literature or internal studies, values were directly adopted.

[10] = test system: LLC-PK1 MOCK cells; test: Bidirectional transport across LLC-PK1 MOCK monolayer (Transwell); details: LLC-PK1 MOCK, 2 µM, 2 h, mean ± s, n = 3; BLQ = below 2 nM;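 note: compound quantified by LC-MS/MS in donor and receiver wells, efflux ratio as B-A over A-B Papp, recovery relative to initial donor amount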
Procedure: as §3, §4, §5, §6, §7, §8

[11] = LLC-PK1 MOCK/MDR1 monolayer model, results stated for both cell lines jointly; details: pig, LLC-PK1 MOCK and LLC-PK1-MDR1 cell monolayers (Transwell)
Procedure: Monitoring of TEER value and LY permeability. After the LLC-PK1 MOCK/MDR1 cells attach to the Transwell insert, TEER (Transepithelial Electrical Resistance) values were continuously recorded using a cell resistance meter (Beijing JINGONGHONGTAI Technology Co., Ltd). These TEER values represent the mean from six individual inserts (n = 6) measured per group. The TEER measurement and transport experiment were conducted at 37 °C, using a heating plate to maintain the required temperature. The transmembrane resistance was calculated using the formula TEER = (Rtotal-Rblank) × Aarea, where Rblank represents the TEER of the blank chamber.
The permeability of the Lucifer Yellow CH Dipotassium Salt (LY, 100 μM) across the monolayers was measured in apical-to-basolateral direction to monitor the integrity of the cell monolayer.
Bidirectional transport experiments. […] The transwell experiments were conducted following above-mentioned procedure.

[12] = parameters: method as in not given; details: stated without method; ref not given; cited from earlier work
[13] = in vitro; details: rat, plasma
Procedure: as §1, §2

[14] = LLC-PK1, pH 7.4, Papp A-B, LLC-PK1-MDR1, 2 µM, 2 h, mean ± s, n = 3
[15] = LLC-PK1, pH 7.4, ER, LLC-PK1-MDR1, Papp (B-A)/Papp (A-B)

SMILES	Kp uu [2]	Papp B→A at 2 h, 2 µM ([4]; LLC-PK1, pH 7.4) [×10⁻⁶ cm/s]	Papp A→B at 2 h, 2 µM ([4]; LLC-PK1 MOCK) [×10⁻⁶ cm/s]	recovery at 2 h, 2 µM [6] [%]	Papp A→B at 2 h, 2 µM ([7]; LLC-PK1, pH 7.4) [×10⁻⁶ cm/s]	Papp B→A at 2 h, 2 µM ([7]; LLC-PK1, pH 7.4) [×10⁻⁶ cm/s]	recovery at 2 h, 2 µM [8] [%]	Papp A→B at 2 h, 2 µM [7, 14] [×10⁻⁶ cm/s]	fraction unbound at 6 h, 5 µM [9]	Papp A-B [10]	efflux ratio at 2 h, 2 µM [7, 15]	Kp, Brain ([3]; footnote a, ref Internal data)	Protein binding in brain tissue [5]	also measured
COc1cccc2c1C(=O)c1c(O)c3c(c(O)c1C2=O)C[C@@](O)(C(=O)CO)C[C@@H]3O[C@H]1C[C@H](N)[C@H](O)[C@H](C)O1 [Doxorubicin]		0.09 ± 0.01			0.95 ± 0.16	3.47 ± 0.39			< 0.01	BLQ				Protein binding in plasma ([1]; footnote b, species not stated, ref https://go.drugbank.com): 75^b %; Kp uu ([2]; SD, iv, 1 mg/kg): < 0.012; Kp ([2]; SD, iv, 1 mg/kg, Kp, Brain): 0.291; Kp ([2]; SD, iv, 1 mg/kg, Kp,uu,Brian): 0.012
CN(C)CCC=C1c2ccccc2CCc2ccccc21 [Amitriptyline]		13.8 ± 1.58	9.98 ± 0.69			12.7 ± 1.19		6.84 ± 0.72			1.85			recovery at 2 µM ([11]; pH 7.4, Recovery after cell lysate extraction, intracellular drug included): > 80%; recovery at 2 µM ([11]; pH 7.4, Recovery, bidirectional transport, uncorrected): < 80%; recovery at 2 µM ([11]; pH 7.4, with bafilomycin A1 1 µM (inhibitor of lysosomal function), Recovery, with 1 µM Bafilomycin A1, bidirectional transport): 80 to 120%; Kp, Brain ([3]; ref Fridén [2009]): 20.15; Kp,uu,Brian ([3]; ref Fridén [2009]): 0.73; efflux ratio at 2 h, 2 µM ([4]; LLC-PK1, pH 7.4, ER, LLC-PK1 MOCK, Papp (B-A)/Papp (A-B)): 1.38; recovery at 2 h, 2 µM ([4]; A-B, LLC-PK1 MOCK): 80.01 ± 0.69%; recovery at 2 h, 2 µM ([4]; B-A, LLC-PK1 MOCK): 90 ± 9.68%; pKa [12]: > 7

Now from value to molecule, other results behind:

Kp uu [2]	Papp B→A at 2 h, 2 µM ([4]; LLC-PK1, pH 7.4) [×10⁻⁶ cm/s]	Papp A→B at 2 h, 2 µM ([4]; LLC-PK1 MOCK) [×10⁻⁶ cm/s]	recovery at 2 h, 2 µM [6] [%]	Papp A→B at 2 h, 2 µM ([7]; LLC-PK1, pH 7.4) [×10⁻⁶ cm/s]	Papp B→A at 2 h, 2 µM ([7]; LLC-PK1, pH 7.4) [×10⁻⁶ cm/s]	recovery at 2 h, 2 µM [8] [%]	Papp A→B at 2 h, 2 µM [7, 14] [×10⁻⁶ cm/s]	fraction unbound at 6 h, 5 µM [9]	Papp A-B [10]	efflux ratio at 2 h, 2 µM [7, 15]	SMILES	Kp, Brain ([3]; footnote a, ref Internal data)	Protein binding in brain tissue [5]	also measured
0.575	20.6 ± 0.92	22.4 ± 0.51	93.1 ± 1.67	20.8 ± 1.43	21.7 ± 1.08	105 ± 2.95					COc1ccc2[nH]cc(CCNC(C)=O)c2c1 [Melatonin]	0.5^a	30.0^a %	Protein binding in plasma ([1]; ref Le Quellec et al. [1994]): 33.0%; efflux ratio at 2 h, 2 µM ([4]; LLC-PK1, pH 7.4): 0.92; efflux ratio at 2 h, 2 µM ([7]; LLC-PK1, pH 7.4): 1.02
2.21	35.2 ± 2.56	30.8 ± 0.61			29.1 ± 3.62		30.2 ± 3.4				Cc1cccc([C@H](C)c2cnc[nH]2)c1C [Dexmedetomidine]	0.80^a	86.7^a %	Protein binding in plasma ([1]; footnote a, ref Internal data): 95.2^a %
0.01	0.21 ± 0.02		98.2 ± 0.36		2.66 ± 0.21	98.1 ± 2.21	1.88 ± 0.35	0.315	BLQ	1.42	CC(C)(C)NCC(O)c1ccc(O)c(CO)c1 (stereo not drawn) [Salbutamol]	0.021^a		fraction unbound at 6 h, 5 µM [13]: 0.78
